Test [1] has as its target MET kinase (Homo sapiens (Human), UniProt P08581). Put plainly: Kinase inhibitory activity, MET. Type of test: biochemical. Particulars: 33P-ATP filter assay, about 40 minutes at room temperature.
Protocol: The kinase inhibitory activity was measured by the following method:
The compound to be evaluated (DMSO solution) and Mg/ATP were added to proceed the reaction.
After about 40 minutes at room temperature, the reaction was stopped by the addition of 10 μL of 0.5% phosphoric acid.
10 μL of 0.5% reaction solution was spotted onto a P30 filtermat.
Washed 4 times for about 4 minutes in 0.425% phosphoric acid. Washed once in methanol, and then dried and analyzed by scintillation counting to measure IC50 value.
In test [2] the test system is Ba/F3 cell line expressing EGFR DEL19/T790M/C797S. Put plainly: Inhibitory effect on cancer cell growth (MTT), Ba/F3 DEL19/T790M/C797S. Format: cell-based, Murine. Particulars: for IC50: read-out: DEL19/T790M/C797S (IC50); for inhibitory activity on C797S mutant EGFR-expressed cancer cell lines, comparison in words: both Ba/F3 triple mutant lines of Table 2. The procedure:
(§1) The inhibitory effect on the growth of a C797S-expressed triple mutant Ba/F3 cancer cell line was measured for the compounds obtained in the examples above. The kinase assay and anticancer efficacy activity using a Ba/F3 stable cell line were measured by the following method:
(§2) 1. […] All constructs were retroviral vectors and finally completed viral particles for infection.
(§3) 2. Construction of Ba/F3 stable cell lines: Murine lymphoid cells undergo IL-3 dependent growth. […] Briefly, each construct was infected into Ba/F3 cell lines, and after 48 hours, IL-3 was removed with media exchange and cells were cultured. However, puromycin selection was performed for wild type EGFR.
(§4) 3. Identification of Ba/F3 stable cell lines: All stable cell lines were subjected to western blotting to confirm the expression of each construct and EGFR activity (EGFR wild type and L858R were omitted).
(§5) 5. Anticancer effect verification by MTT assay: 2×10^3 cells were seeded in a 96-well plate. After 24 hours, each of the drugs was treated in a dose-dependent manner, incubated for 72 hours, reacted with 15 μL of MTT reagent for 4 hours, and then 100 μL of 10% SDS was added thereto and incubated for 24 hours. […] MTT results were analyzed by measuring IC50 values through prism software.

For test [3], the system named is Ba/F3 cell line expressing EGFR L858R/T790M/C797S. Put plainly: Inhibitory effect on cancer cell growth (MTT), Ba/F3 L858R/T790M/C797S. Type of test: cell-based, Murine. The note with it: read-out: L858R/T790M/C797S (IC50). The procedure:
as §1, §2, §3, §4, §5

Where [4] appears, read: Mus musculus, BaF3, Ba/F3 stable cell line, MTT, 72 hours, GI50.
The mark [5] stands for this setting: Ba/F3 stable cell line, MTT, 72 hours, GI50.

The record followed here is US11248003B2, “Pyrimidine derivative having effect of inhibiting cancer cell growth and pharmaceutical composition containing same” (ONCOBIX CO., LTD., priority 2017, dated 2022).

Like-named read-outs stand apart in the source and are kept apart here.

Sequence of MET kinase (P08581 25-1390): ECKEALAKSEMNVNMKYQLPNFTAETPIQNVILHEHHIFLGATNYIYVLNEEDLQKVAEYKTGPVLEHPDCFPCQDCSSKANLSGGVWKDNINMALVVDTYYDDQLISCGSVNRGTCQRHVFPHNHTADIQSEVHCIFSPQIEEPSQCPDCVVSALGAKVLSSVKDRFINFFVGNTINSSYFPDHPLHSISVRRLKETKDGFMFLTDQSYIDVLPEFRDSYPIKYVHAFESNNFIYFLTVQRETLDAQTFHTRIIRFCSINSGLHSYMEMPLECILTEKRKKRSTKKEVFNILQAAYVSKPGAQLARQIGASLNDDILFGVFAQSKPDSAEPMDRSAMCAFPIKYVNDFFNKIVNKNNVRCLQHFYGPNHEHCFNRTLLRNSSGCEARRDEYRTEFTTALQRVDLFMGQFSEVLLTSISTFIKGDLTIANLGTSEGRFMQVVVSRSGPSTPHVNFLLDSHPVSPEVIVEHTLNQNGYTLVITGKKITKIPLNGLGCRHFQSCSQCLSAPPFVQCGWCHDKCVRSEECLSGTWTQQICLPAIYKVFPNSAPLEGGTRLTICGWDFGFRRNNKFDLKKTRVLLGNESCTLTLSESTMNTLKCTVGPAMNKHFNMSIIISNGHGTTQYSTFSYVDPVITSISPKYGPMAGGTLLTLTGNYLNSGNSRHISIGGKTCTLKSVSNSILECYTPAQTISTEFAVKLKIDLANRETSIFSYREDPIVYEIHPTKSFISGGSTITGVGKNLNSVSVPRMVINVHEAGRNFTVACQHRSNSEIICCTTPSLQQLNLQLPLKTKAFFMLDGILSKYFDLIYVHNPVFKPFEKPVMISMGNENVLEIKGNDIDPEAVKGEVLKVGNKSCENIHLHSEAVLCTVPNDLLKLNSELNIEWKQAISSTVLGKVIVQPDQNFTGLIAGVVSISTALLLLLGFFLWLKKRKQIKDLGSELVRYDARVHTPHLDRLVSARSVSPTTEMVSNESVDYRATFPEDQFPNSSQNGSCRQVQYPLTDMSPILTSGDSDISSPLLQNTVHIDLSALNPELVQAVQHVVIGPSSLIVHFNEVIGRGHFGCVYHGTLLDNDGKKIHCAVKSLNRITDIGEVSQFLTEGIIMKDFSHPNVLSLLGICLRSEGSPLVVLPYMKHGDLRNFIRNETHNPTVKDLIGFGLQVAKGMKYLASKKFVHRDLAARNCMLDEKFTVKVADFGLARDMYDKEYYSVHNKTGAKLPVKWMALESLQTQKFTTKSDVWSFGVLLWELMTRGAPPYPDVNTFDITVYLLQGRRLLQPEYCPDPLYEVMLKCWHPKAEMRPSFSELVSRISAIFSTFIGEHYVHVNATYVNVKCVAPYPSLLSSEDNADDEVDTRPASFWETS

Regarding `COc1cc(N2CCC(N3CCN(C)CC3)CC2)ccc1Nc1ncc(Cl)c(Nc2ccccc2P(C)(C)=O)n1` [Brigatinib], the IC50 in test [1] amounted to 70 nM; in test [2] (Mus musculus, BaF3, 72 h) it was 560 nM; in test [3] (Mus musculus, BaF3, 72 h), 860 nM. In addition, the “inhibitory activity on C797S mutant EGFR-expressed cancer cell lines, comparison in words” value in test [2] was “very less active”.
`COc1cc(N2CCC(N3CCN(C)CC3)CC2)ccc1Nc1ncc(Cl)c(Nc2ccccc2N(C)S(C)(=O)=O)n1` [Example 1, N-(2-((5-chloro-2-((2-methoxy-4-(4-(4-methylpiperazin-1-yl)piperidin-1-yl)phenyl)amino)pyrimidin-4-yl)amino)phenyl)-N-methylmethanesulfonamide]: the figures for the IC50 in test [1], in test [2] (setting [4]) and in test [3] (setting [4]) were 1 nM, 210 nM and 160 nM, respectively.
As for `COc1cc(N2CCC(N3CCN(C)CC3)CC2)ccc1Nc1ncc(Cl)c(Nc2cc(F)ccc2N(C)S(C)(=O)=O)n1` [Example 2, N-(2-((5-chloro-2-((2-methoxy-4-(4-(4-methylpiperazin-1-yl)piperidin-1-yl)phenyl)amino)pyrimidin-4-yl)amino)-4-fluorophenyl)-N-methylmethanesulfonamide], the results for the IC50 in test [2] (setting [4]) and in test [3] (setting [4]) were 222 nM and 533 nM, respectively.
The like results for `COc1cc(N2CCC(N(C)C)CC2)ccc1Nc1ncc(Cl)c(Nc2ccccc2N(C)S(C)(=O)=O)n1` [Example 3, N-(2-((5-chloro-2-((4-(4-(dimethylamino)piperidin-1-yl)-2-methoxyphenyl)amino)pyrimidin-4-yl)amino)phenyl)-N-methylmethanesulfonamide] were, in that order, 323 nM and 531 nM.
On to `COc1cc(C2CCNCC2)ccc1Nc1ncc(Cl)c(Nc2ccccc2NS(C)(=O)=O)n1` [TRE-069], for which the results for the IC50 in test [1], in test [2] (setting [5]) and in test [3] (setting [5]) were 120 nM, 5000 nM and 4000 nM, respectively. The “inhibitory activity on C797S mutant EGFR-expressed cancer cell lines, comparison in words” value in test [2] is listed as “very less active”.
